# Key:
# [1] = molecular target: Ribosomal protein S6 kinase alpha-5 (Homo sapiens) (UniProt O75582); assay: Binding affinity to wild-type human partial length C-terminal RPS6KA5 kinase domain 2 (V390 to T718 residues) expressed in bacterial expression system assessed as residual binding level at 10 uM by Kinomescan method relative to control
# [2] = molecular target: STE20-like serine/threonine-protein kinase (Homo sapiens) (UniProt Q9H2G2); assay: Binding affinity to wild-type human partial length SLK (S14 to A307 residues) expressed in bacterial expression system assessed as residual binding level at 10 uM by Kinomescan method relative to control
# [3] = molecular target: Mitogen-activated protein kinase kinase kinase kinase 5 (Homo sapiens) (UniProt Q9Y4K4); assay: Binding affinity to wild-type human partial length MAP4K5 (M1 to P297 residues) expressed in bacterial expression system assessed as residual binding level at 10 uM by Kinomescan method relative to control
# [4] = molecular target: Serine/threonine-protein kinase Nek7 (Homo sapiens) (UniProt Q8TDX7); assay: Binding affinity to wild-type human full length NEK7 (M1 to S302 residues) expressed in bacterial expression system assessed as residual binding level at 10 uM by Kinomescan method relative to control
# [5] = molecular target: Serine/threonine-protein kinase OSR1 (Homo sapiens) (UniProt O95747); assay: Binding affinity to wild-type human full length OSR1 (M1 to S527 residues) expressed in mammalian expression system assessed as residual binding level at 10 uM by Kinomescan method relative to control
# [6] = molecular target: Serine/threonine-protein kinase PAK 4 (Homo sapiens) (UniProt O96013); assay: Binding affinity to wild-type human partial length PAK4 (Q144 to R438 residues) expressed in bacterial expression system assessed as residual binding level at 10 uM by Kinomescan method relative to control
# [7] = molecular target: Wee1-like protein kinase (Homo sapiens) (UniProt P30291); assay: Binding affinity to wild-type human partial length WEE1 (M291 to K575 residues) expressed in bacterial expression system assessed as residual binding level at 10 uM by Kinomescan method relative to control
# [8] = molecular target: Glycogen synthase kinase-3 beta (Homo sapiens) (UniProt P49841); assay: Binding affinity to wild-type human full length GSK3B (M1 to T433 residues) expressed in mammalian expression system assessed as residual binding level at 10 uM by Kinomescan method relative to control
# [9] = molecular target: Serine/threonine-protein kinase Nek11 (Homo sapiens) (UniProt Q8NG66); assay: Binding affinity to wild-type human partial length NEK11 (M1 to E313 residues) expressed in mammalian expression system assessed as residual binding level at 10 uM by Kinomescan method relative to control
# [10] = molecular target: Serine/threonine-protein kinase PAK 3 (Homo sapiens) (UniProt O75914); assay: Binding affinity to wild-type human full length PAK3 (M1 to R544 residues) expressed in bacterial expression system assessed as residual binding level at 10 uM by Kinomescan method relative to control
# [11] = molecular target: Mitogen-activated protein kinase kinase kinase 1 (Homo sapiens) (UniProt Q13233); assay: Binding affinity to wild-type human partial length MAP3K1 (L1202 to W1512 residues) expressed in mammalian expression system assessed as residual binding level at 10 uM by Kinomescan method relative to control
# [12] = test system: Epidermal growth factor receptor (Homo sapiens), P00533 [T790M]; assay: Binding affinity to human partial length EGFR T790M mutant (R669 to G1022 residues) expressed in mammalian expression system assessed as residual binding level at 10 uM by Kinomescan method relative to control
# [13] = molecular target: Tyrosine-protein kinase JAK2 (Homo sapiens) (UniProt O60674); assay: Binding affinity to wild-type human partial length JAK2 JH1 catalytic domain (A829 to G1132 residues) expressed in mammalian expression system assessed as residual binding level at 10 uM by Kinomescan method relative to control
# [14] = molecular target: Cyclin-dependent kinase 14 (Homo sapiens) (UniProt O94921); assay: Binding affinity to wild-type human full length PFTK1 (M1 to H451 residues) expressed in bacterial expression system assessed as residual binding level at 10 uM by Kinomescan method relative to control
# [15] = test system: Phosphatidylinositol 4,5-bisphosphate 3-kinase catalytic subunit alpha isoform (Homo sapiens), P42336 [M1043I]; assay: Binding affinity to human partial length PIK3CA M1043I mutant (R108 to N1068 residues) expressed in mammalian expression system assessed as residual binding level at 10 uM by Kinomescan method relative to control
# [16] = molecular target: Serine/threonine-protein kinase/endoribonuclease IRE1 (Homo sapiens) (UniProt O75460); assay: Binding affinity to wild-type human partial length ERN1 (S551 to E852 residues) expressed in mammalian expression system assessed as residual binding level at 10 uM by Kinomescan method relative to control
# [17] = molecular target: Casein kinase I isoform gamma-3 (Homo sapiens) (UniProt Q9Y6M4); assay: Binding affinity to wild-type human full length CSNK1G3 (M1 to K447 residues) expressed in bacterial expression system assessed as residual binding level at 10 uM by Kinomescan method relative to control
# [18] = molecular target: Mitogen-activated protein kinase kinase kinase kinase 2 (Homo sapiens) (UniProt Q12851); assay: Binding affinity to wild-type human partial length MAP4K2 (M1 to G318 residues) expressed in mammalian expression system assessed as residual binding level at 10 uM by Kinomescan method relative to control
# [19] = molecular target: Fibroblast growth factor receptor 2 (Homo sapiens) (UniProt P21802); assay: Binding affinity to wild-type human partial length FGFR2 (D457 to E769 residues) expressed in bacterial expression system assessed as residual binding level at 10 uM by Kinomescan method relative to control
# [20] = test system: ALK tyrosine kinase receptor (Homo sapiens), Q9UM73 [C1156Y]; assay: Binding affinity to […] human partial length ALK C1156Y mutant (I1088 to E1409 residues) expressed in mammalian expression system assessed as residual binding level at 10 uM by Kinomescan method relative to control
# [21] = molecular target: Cyclin-dependent kinase 11B (Homo sapiens) (UniProt P21127); assay: Binding affinity to wild-type human partial length CDC2L1 (P353 to G692 residues) expressed in bacterial expression system assessed as residual binding level at 10 uM by Kinomescan method relative to control
# NIH3T3 = assay: Inhibition of erastin-induced ferroptosis in mouse NIH/3T3 cells after 24 hrs by WST-8 assay; assay type: functional, cell-based; settings: NIH3T3, 24 h
# [22] = test system: Mast/stem cell growth factor receptor Kit (Homo sapiens), P10721 [UNDEFINED MUTATION]; assay: Binding affinity to human partial length KIT V559D/V654 double mutant (Y545 to D952 residues) expressed in bacterial expression system assessed as residual binding level at 10 uM by Kinomescan method relative to control
# [23] = molecular target: Serine/threonine-protein kinase BRSK2 (Homo sapiens) (UniProt Q8IWQ3); assay: Binding affinity to wild-type human full length BRSK2 (M1 to L674 residues) expressed in bacterial expression system assessed as residual binding level at 10 uM by Kinomescan method relative to control
# Sequence of Serine/threonine-protein kinase BRSK2 (Homo sapiens) (Q8IWQ3 whole entry, the tested form may be a part): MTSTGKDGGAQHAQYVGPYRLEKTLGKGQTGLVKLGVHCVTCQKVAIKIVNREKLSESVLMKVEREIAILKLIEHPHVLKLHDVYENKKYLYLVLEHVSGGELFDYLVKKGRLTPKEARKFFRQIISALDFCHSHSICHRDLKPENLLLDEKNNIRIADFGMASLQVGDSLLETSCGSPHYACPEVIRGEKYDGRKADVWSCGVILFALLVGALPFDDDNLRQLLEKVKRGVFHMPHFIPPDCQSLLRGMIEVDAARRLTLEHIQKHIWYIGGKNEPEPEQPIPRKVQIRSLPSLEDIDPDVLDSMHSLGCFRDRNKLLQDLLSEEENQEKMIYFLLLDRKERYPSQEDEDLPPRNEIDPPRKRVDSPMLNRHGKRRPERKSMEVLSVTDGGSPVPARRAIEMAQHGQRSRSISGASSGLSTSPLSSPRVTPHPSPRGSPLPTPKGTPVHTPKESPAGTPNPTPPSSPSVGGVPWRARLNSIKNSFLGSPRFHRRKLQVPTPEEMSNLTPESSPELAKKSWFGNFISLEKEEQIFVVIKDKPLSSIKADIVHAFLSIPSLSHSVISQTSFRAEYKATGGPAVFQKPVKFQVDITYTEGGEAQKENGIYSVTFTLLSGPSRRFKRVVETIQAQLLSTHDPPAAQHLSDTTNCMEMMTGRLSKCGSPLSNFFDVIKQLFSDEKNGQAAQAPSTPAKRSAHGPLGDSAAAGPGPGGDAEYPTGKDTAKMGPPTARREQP
# Sequence of Serine/threonine-protein kinase OSR1 (Homo sapiens) (O95747 2-527 limits assumed): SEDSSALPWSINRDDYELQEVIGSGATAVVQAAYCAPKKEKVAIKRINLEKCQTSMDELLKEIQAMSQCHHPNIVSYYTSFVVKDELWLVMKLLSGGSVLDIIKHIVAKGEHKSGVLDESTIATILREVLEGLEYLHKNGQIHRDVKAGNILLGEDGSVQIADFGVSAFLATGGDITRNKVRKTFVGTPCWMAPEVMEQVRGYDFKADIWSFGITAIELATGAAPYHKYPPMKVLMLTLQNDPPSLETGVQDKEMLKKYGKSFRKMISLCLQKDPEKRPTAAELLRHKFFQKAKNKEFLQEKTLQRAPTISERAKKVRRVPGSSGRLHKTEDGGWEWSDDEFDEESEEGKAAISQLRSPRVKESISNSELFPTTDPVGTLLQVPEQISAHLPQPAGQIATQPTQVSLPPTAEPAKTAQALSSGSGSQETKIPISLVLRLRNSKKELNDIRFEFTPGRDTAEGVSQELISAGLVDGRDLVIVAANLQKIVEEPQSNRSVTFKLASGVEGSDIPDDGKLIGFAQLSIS
# Sequence of STE20-like serine/threonine-protein kinase (Homo sapiens) (Q9H2G2 whole entry, looked up, the tested form may be a part): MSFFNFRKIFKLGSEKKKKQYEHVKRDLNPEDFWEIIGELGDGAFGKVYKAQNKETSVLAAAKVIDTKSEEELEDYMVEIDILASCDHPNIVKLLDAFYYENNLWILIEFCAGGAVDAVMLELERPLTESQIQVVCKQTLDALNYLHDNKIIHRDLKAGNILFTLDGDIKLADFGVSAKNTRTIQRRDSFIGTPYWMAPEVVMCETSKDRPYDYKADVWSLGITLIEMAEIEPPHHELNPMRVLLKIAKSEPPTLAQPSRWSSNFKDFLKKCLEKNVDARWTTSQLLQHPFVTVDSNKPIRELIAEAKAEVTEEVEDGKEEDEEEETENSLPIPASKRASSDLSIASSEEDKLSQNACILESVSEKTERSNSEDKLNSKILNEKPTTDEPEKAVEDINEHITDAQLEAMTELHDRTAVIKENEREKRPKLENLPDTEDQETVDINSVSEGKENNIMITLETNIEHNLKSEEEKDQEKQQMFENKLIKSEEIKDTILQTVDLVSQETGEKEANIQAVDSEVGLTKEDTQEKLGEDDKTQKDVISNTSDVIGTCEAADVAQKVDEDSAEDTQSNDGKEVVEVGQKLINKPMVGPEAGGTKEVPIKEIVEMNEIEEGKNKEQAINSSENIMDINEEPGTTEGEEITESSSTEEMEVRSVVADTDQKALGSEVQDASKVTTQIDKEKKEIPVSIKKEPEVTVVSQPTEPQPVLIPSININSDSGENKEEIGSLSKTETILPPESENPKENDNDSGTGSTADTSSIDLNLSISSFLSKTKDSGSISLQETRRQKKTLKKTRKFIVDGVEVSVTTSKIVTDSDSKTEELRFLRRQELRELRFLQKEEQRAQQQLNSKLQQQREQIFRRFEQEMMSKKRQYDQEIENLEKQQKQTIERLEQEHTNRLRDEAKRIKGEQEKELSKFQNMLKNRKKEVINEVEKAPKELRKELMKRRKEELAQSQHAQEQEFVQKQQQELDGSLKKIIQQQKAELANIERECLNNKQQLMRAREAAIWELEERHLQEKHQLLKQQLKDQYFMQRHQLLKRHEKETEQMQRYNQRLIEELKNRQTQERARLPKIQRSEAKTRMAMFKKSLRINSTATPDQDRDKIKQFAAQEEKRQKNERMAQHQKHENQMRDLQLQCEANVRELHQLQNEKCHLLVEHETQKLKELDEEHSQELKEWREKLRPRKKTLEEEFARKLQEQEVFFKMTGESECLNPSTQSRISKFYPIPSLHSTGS
# Sequence of Serine/threonine-protein kinase PAK 4 (Homo sapiens) (O96013 whole entry, looked up, the tested form may be a part): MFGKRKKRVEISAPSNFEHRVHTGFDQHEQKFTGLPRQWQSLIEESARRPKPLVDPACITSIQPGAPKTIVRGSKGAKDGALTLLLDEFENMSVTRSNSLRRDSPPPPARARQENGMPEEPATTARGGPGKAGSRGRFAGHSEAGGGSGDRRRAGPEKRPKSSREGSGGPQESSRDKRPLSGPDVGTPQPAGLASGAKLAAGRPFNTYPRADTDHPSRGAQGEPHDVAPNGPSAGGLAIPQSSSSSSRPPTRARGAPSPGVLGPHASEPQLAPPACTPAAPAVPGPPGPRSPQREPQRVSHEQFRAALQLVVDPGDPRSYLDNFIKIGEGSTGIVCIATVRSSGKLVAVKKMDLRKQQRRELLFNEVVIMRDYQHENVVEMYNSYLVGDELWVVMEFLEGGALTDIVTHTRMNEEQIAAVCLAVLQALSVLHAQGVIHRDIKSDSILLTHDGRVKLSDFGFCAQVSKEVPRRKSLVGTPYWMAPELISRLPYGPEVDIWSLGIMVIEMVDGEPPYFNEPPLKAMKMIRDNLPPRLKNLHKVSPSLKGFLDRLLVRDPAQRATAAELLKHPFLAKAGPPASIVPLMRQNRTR
# Sequence of Phosphatidylinositol 4,5-bisphosphate 3-kinase catalytic subunit alpha isoform (Homo sapiens), P42336 [M1043I] (P42336 whole entry M1043I, the tested form may be a part, canonical isoform): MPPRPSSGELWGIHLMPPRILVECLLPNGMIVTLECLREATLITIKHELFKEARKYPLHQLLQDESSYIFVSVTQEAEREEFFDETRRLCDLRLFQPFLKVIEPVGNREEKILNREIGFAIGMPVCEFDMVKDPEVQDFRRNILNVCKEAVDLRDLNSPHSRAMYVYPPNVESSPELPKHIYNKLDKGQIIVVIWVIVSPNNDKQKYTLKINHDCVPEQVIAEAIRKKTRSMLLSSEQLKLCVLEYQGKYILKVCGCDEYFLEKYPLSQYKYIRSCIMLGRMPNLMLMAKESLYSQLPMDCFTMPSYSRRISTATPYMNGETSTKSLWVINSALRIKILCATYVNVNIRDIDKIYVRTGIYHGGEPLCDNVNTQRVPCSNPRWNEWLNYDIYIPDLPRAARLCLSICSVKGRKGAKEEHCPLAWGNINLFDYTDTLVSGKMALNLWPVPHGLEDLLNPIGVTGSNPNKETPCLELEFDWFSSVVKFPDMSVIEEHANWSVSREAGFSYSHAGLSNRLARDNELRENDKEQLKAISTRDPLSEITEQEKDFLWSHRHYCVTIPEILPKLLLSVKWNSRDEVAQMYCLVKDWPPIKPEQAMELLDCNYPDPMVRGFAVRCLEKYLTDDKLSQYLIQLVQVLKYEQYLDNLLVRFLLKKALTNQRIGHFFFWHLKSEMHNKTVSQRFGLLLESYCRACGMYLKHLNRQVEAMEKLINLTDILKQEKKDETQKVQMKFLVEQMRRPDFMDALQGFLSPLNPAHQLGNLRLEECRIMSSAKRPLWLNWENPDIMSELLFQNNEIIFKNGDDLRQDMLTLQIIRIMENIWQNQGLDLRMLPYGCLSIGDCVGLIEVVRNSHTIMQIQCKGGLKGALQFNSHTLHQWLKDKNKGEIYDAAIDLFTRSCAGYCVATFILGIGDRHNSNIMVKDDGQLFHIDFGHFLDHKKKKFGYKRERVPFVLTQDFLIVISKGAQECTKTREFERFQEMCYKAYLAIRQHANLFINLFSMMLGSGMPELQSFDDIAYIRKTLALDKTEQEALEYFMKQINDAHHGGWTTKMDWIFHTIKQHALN
# Sequence of Glycogen synthase kinase-3 beta (Homo sapiens) (P49841 whole entry, looked up, the tested form may be a part): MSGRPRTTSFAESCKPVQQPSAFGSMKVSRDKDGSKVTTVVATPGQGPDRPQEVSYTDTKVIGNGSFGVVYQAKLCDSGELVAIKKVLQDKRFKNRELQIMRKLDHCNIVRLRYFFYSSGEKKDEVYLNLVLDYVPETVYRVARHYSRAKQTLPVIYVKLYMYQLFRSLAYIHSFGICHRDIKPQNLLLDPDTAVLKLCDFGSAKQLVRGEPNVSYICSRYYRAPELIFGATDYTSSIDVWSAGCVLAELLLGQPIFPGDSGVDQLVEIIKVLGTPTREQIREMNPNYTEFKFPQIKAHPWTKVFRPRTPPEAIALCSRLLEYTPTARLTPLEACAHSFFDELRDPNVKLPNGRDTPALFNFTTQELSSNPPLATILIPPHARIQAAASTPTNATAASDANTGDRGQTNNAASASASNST
# Sequence of Cyclin-dependent kinase 14 (Homo sapiens) (O94921 whole entry, the tested form may be a part, canonical isoform): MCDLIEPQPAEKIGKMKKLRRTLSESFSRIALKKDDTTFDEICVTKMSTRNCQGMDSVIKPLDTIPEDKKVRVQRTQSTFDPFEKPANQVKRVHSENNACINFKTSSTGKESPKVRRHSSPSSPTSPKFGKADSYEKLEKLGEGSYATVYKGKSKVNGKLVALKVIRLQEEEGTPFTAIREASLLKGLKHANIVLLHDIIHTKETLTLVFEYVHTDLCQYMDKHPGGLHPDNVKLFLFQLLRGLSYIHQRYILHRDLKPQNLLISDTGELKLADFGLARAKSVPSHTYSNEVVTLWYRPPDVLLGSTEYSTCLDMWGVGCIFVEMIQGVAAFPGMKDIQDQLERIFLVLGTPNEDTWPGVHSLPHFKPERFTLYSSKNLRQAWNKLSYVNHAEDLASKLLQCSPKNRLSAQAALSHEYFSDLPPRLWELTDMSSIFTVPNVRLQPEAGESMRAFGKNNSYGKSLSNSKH
compound,measurement,setting,value
CC(C)N1C(=O)C(NCCCN(C)C)=C(c2cn(C)c3ccccc23)C1=O.Cl,Activity,[1],96%
same,Activity,[2],78%
same,Activity,[3],100%
same,Activity,[4],95%
same,Activity,[5],77%
same,Activity,[6],89%
same,Activity,[7],100%
same,Activity,[8],84%
same,Activity,[9],100%
same,Activity,[10],100%
same,Activity,[11],68%
same,Activity,[12],91%
same,Activity,[13],86%
same,Activity,[14],100%
same,Activity,[15],67%
same,Activity,[16],85%
same,Activity,[17],96%
same,Activity,[18],85%
same,Activity,[19],100%
same,Activity,[20],90%
same,Activity,[21],96%
same,IC50,NIH3T3,1900 nM
same,Activity,[22],95%
same,Activity,[23],86%

# From ChEMBL document CHEMBL4304811, “Development of a Water-Soluble Indolylmaleimide Derivative IM-93 Showing Dual Inhibition of Ferroptosis and NETosis” (ACS Med Chem Lett, 2019)
